The values below come from patent publication US20250325468A1, “PEPTIDE INHIBITING FORMATION OF SNARE COMPLEX AND USE THEREOF” (MEDYTOX INC., priority 2020, published 2025).

The test system of one series is MITF gene. As to the kind of experiment: MITF gene activity by real-time PCR. It is filed as cell-based, mice. The following applies: Table 2; three replicates; C2-P4 10 μM, α-MSH 50 nM, 48 hours. Here is the method:
B16-F10 cells purchased from the Korean Cell Line Bank were inoculated into 3 mL of a DMEM medium containing 10% FBS at a concentration of 1×10^5 cells/well in a 6-well plate and cultured in an incubator of 37° C. and 5% CO2 for 24 hours to form a cell monolayer. The medium in a negative control was replaced with a DMEM medium, and the medium in peptide-treated experimental groups and α-MSH experimental groups was replaced with a medium containing 10 μM of each of the peptides and 50 nM of α-MSH, respectively, and then the cells were cultured for 48 hours. Each of the experimental groups was washed twice with PBS, the cells were obtained with trypsin-EDTA and centrifuged at 1500 rpm for 5 minutes to separate the cells. RNA was extracted from the separated cells using Trizol, and each 1,000 ng of cDNA was synthesized using reverse transcriptase. Using 100 ng of each of the synthesized cDNAs, the expression levels of GAPDH and […] were confirmed using real-time PCR. The primers used for the real-time PCR were SEQ ID NOs: 9 and 10. Alternatively, the polynucleotide sets of SEQ ID NOs: 11 and 12 were used.
(In general: Quantitative PCR measures a nucleic acid by following its amplification.)

Another series relates to B16-F10 cells. The experiment in a line: Raw material toxicity test: MTT analysis. The class given is cell-based, mice. Conditions: FIG. 3; 12.5 μM, 25 μM and 50 μM, 48 hours. On the procedure:
B16-F10 cells purchased from the Korean Cell Line Bank were inoculated into 100 μL of a DMEM medium containing 10% FBS at a concentration of 1×10^4 cells/well in a 96-well plate and cultured for 48 hours. B16-F10 cells are a murine melanoma cell line derived from mice. These cells are adherent and have an epithelial morphology. Thereafter, the C2-P4 peptide was diluted in a DMEM culture medium at concentrations of 12.5 μM, 25 μM, and 50 μM to replace the medium, and the cells were cultured for 48 hours. After centrifuging the plate at 1,000 rpm for 10 minutes, the culture medium solution was removed. Each well was washed twice with PBS, and a 0.5 mg/ml MTT solution diluted in a DMEM medium was added thereto. The cells were cultured in an incubator of 37° C. and 5% CO2 for 2 hours. After centrifuging the plate at 1,000 rpm for 10 minutes, the MTT solution was removed. Each well was washed twice with PBS, and 150 μL of DMSO was added to dissolve the produced formazan. The plate was placed in a spectrometer (Spectra MAX i3), and absorbance of the sample in each well was measured at 590 nm.

Series [1] can be described thus: Skin irritation test on artificial skin (MTT). The class given is cell-based. The following applies: human, artificial skin (Neoderm-ED, Tegoscience); FIG. 4; 20 μl of 100 μg/ml peptide; 50% or greater = no irritation; read-out: cell viability. Here is the method:
(§1) 1×PBS and 5% SDS were evenly applied to artificial skin (Neoderm-ED) purchased from Tegoscience (South Korea) to prepare a negative control and a positive control, respectively. An experimental group was evenly coated with 20 μl of 100 μg/ml C2-P4 peptide. After allowing the samples to react at room temperature for 15 minutes, the resultants were each transferred to the wells of a 12-well culture plate and cultured in an incubator of 37° C. and 5% CO2 for 15 minutes. Once the reaction was completed, the artificial skin was washed twice with PBS and transferred to the wells of a new 12-well culture plate and cultured for 42 hours. Once the culture was completed, 2 ml of 0.3 mg/ml MTT solution was added, and the cells were cultured for 3 hours. The sample in each well of the plate was decolorized by adding 0.04 N HCl-isopropanol, and placed in the Spectra MAX i3, and absorbance of the sample in each well was measured at 580 nm.
(§2) FIG. 4 is a graph showing the results of measuring effect of C2-P4 on skin irritation. […] Here, when the cell viability of a sample was 50% or greater, the sample was determined to have no irritation.

Series [2] has as its system artificial skin (Neoderm-ED). As to the kind of experiment: Skin irritation test on artificial skin (MTT). It is filed as cell-based. The following applies: FIG. 4; 20 μl of 100 μg/ml peptide; 50% or greater viability = no irritation. On the procedure:
as §1, §2

Several values for one entry are separate records, joined by “and”; a condition that tells them apart may be missing. Equal entries are not always repeated. Where no end group is shown, it is not given here.

Turning to α-MSH, the “MITF (real-time PCR value)” value in the series with MITF gene was 30.05 and 29.98 and 30.17.
As for “RRWRRWNRFNRRRCRRRLQQTQAQVDEVVDIM [C2-P4]”, in the series on B16-F10 cells, the “cell viability compared to the negative control (scrambled peptide)” value was “similar” and the “cytotoxicity (MTT assay)” value was “no cytotoxicity”. For the same substance, in series [1], the viability at 0.5 h, 100 µg/mL was about 85%. In series [2], the skin irritation entry was “no irritation”.

In general, viability refers to the share of living cells, or the viability signal relative to a control.
